Experimental data reported in patent US20210169078A1, “AGENT FOR SUPPRESSING MICROBIAL GROWTH, METHOD FOR PREVENTING MICROBIAL CONTAMINATION, AND BEVERAGE” (priority 2018, published 2021).
In brackets after ≈: the same amount, converted by molar mass.

How the values were obtained:
Format in all cases: cell-based
[1] = tested on: Staphylococcus aureus (Staphylococcus aureus subsp. aureus NBRC 12732); assay: Agar plate dilution MIC test; settings: NBRC12732, Mueller Hinton Agar, 37 ± 1 °C, 18 to 20 hours, aerobic
[2] = tested on: Thermo-Acidophilic Bacilli (Alicyclobacillus acidoterrestris ATCC 49025); assay: Agar plate dilution MIC test; settings: ATCC49025, 120 h, YSG agar medium, 50 ± 1 °C, 5 days, aerobic
[3] = tested on: Clostridium difficile (spores) (Clostridium difficile ATCC 9689); assay: Agar plate dilution MIC test; settings: Clostridioides difficile, ATCC9689; Clostridium difficile ATCC 9689 (spores); taurocholic acid-containing BHIA medium, 37 ± 1 °C, 18 to 20 hours, anaerobic
[4] = tested on: Bacillus cereus (Bacillus cereus IFO 13494); assay: Agar plate dilution MIC test; settings: IFO13494, Mueller Hinton Agar, 37 ± 1 °C, 18 to 20 hours, aerobic
[5] = tested on: Bacillus welchii (Clostridium perfringens JCM 1290); assay: organism not typed; settings: 24 h

COc1cc(O)c(CC=C(C)C)c2c1C(=O)CC(c1ccc(O)cc1)O2 (centres unmarked) [Isoxanthohumol]
MIC [1]: 50 µg/mL (≈ 141 µM)
MIC [2]: 25 µg/mL (≈ 70.5 µM)
MIC [3]: 50 µg/mL (≈ 141 µM)
MIC [4]: 50 µg/mL (≈ 141 µM)
MIC [5]: 50 µg/mL (≈ 141 µM)
